SMILES strings stand for the structures.

Drawing on patent US6436960B1, “Farnesyl transferase inhibitors having a piperidine structure and process for preparation thereof” (LG Chemical Ltd., priority 1998, dated 2002), this text covers IC50 for five compounds.

For test [1], the target named is T1, Ras farnesyl transferase (Homo sapiens, UniProt P49354+P49356).
T1 construct: made in house
Briefly: in vitro inhibitory activity for Ras farnesyl transferase, K-Ras substrate. The conditions noted are these: recombinant Ras farnesyl transferase, K-Ras substrate; read-out: K-Ras IC50. The format is biochemical.

Test [2] concerns the target T2, Ras farnesyl transferase (Rattus norvegicus, UniProt Q02293+Q04631).
T2 construct: endogenous in cells; host or cells: Rat2 fibroblasts transformed with C-Harvey-Ras, or with H-Ras carrying the K-Ras C-terminal polybasic lysine domain
The experiment in a line: in vivo (cellular) Ras farnesyl transferase inhibitory activity, Rat2 cells expressing C-Harvey-Ras. The format is cell-based. The conditions noted are these: Rat2 cell line expressing C-Harvey-Ras; concentration inhibiting 50% of farnesyl binding of Ras protein; read-out: H-Ras CIC50. Put shortly: (§1)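 Transformed Rat2 cells treated with compound in 1% DMSO, labelled with [35S]methionine from 4 h onward for a further 20 h. Ras immunoprecipitated with Y13-259 and resolved by SDS-PAGE and autoradiography. CIC50 is the concentration inhibiting 50% of Ras farnesylation, from farnesylated versus unfarnesylated band intensities.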

The target in test [3] is T1, Ras farnesyl transferase. Briefly: in vitro inhibitory activity for Ras farnesyl transferase, H-Ras substrate. The format is biochemical. The conditions noted are these: recombinant Ras farnesyl transferase, H-Ras substrate, tritium-farnesylpyrophosphate, 30 minutes at 37° C.; read-out: H-Ras IC50.
In test [4] the target is T2, Ras farnesyl transferase. Briefly: in vivo (cellular) Ras farnesyl transferase inhibitory activity, Rat2 cells transformed with H-Ras fused with polybasic lysine domain of K-Ras. The format is cell-based. The settings on record: Rat2 cell line transformed with H-Ras substituted with polybasic lysine domain at C-terminus of K-Ras; concentration inhibiting 50% of farnesyl binding; read-out: K-Ras CIC50. The method in brief: as §1

With `COCCN(C)C(=O)c1cn(Cc2cncn2CC2CCN(S(C)(=O)=O)CC2)cc1-c1cccc2ccccc12` [Compound 8, 3-[N-(2-Methoxyethyl)-N-methyl]carbamoyl-1-[1-(1-methylsulfonyl-piperidin-4-ylmethyl)-1H-imidazol-5-ylmethyl]-4-(naphthalen-1-yl)-1H-pyrrole], the IC50 at Ras farnesyl transferase [1] was 10 to 100 nM; at Ras farnesyl transferase [2], 10 to 100 nM; at Ras farnesyl transferase [3], 1.2 nM; on Ras farnesyl transferase [4], 10000 to 50000 nM.

As to `CC(C)CCOC(=O)N1CCC(Cn2cncc2Cn2cc(C(=O)N3CCN(C)CC3)c(-c3cccc4ccccc34)c2)CC1` [Compound 46], the IC50 at Ras farnesyl transferase [1] was 16 nM; on Ras farnesyl transferase [2], 25 nM; on Ras farnesyl transferase [3], 2.2 nM; on Ras farnesyl transferase [4], 10000 to 50000 nM.

As to `COCCN(C)C(=O)c1cn(Cc2cncn2CC2CCN(C(=O)OCc3ccc(F)cc3)CC2)cc1-c1cccc2ccccc12` [Compound 24], the IC50 was 15 nM at Ras farnesyl transferase [1], 10 to 100 nM on Ras farnesyl transferase [2], 6 nM on Ras farnesyl transferase [3] and 1000 to 10000 nM at Ras farnesyl transferase [4].

With `COCCN(C)C(=O)c1cn(Cc2cncn2CC2CCN(C(=O)OCc3ccc4ccccc4c3)CC2)cc1-c1cccc2ccccc12` [Compound 20], the IC50 at Ras farnesyl transferase [1] is 10 nM; at Ras farnesyl transferase [2], 10 nM; on Ras farnesyl transferase [3], 6 nM; at Ras farnesyl transferase [4], 1000 to 10000 nM.

`COCCN(C)C(=O)c1cn(Cc2cncn2CC2CCN(C(=O)CCc3ccccc3)CC2)cc1-c1cccc2ccccc12` [Compound 15, 3-[N-(2-Methoxyethyl)-N-methyl]carbamoyl-4-(naphthalen-1-yl)-1-{1-[1-(2-phenylethylcarbonyl)-piperidin-4-ylmethyl]-1H-imidazol-5-ylmethyl}-1H-pyrrole]: the IC50 at Ras farnesyl transferase [1] was 10 to 1000 nM; on Ras farnesyl transferase [2], 10 to 100 nM; on Ras farnesyl transferase [3], 1 nM; at Ras farnesyl transferase [4], 1000 to 50000 nM.
